{"source": "paper PMC9220351", "about": "“Evaluation of a Conformationally Constrained Indole Carboxamide as a Potential Efflux Pump Inhibitor in Pseudomonas aeruginosa” (Antibiotics, 2022)", "key": {"[1]": {"system": "P. aeruginosa K1455 (mexAB-oprM overexpressed)", "experiment": "microbe, parasite or virus in culture", "type": "cell-based, Pseudomonas aeruginosa", "details": "Pseudomonas aeruginosa, read-out: MICs K1455 (↑mexAB-oprM)", "excerpt": "(§1) P. aeruginosa ATCC 27853 was obtained from the American Type Culture Collection (ATCC; Manassas, VA, USA). P. aeruginosa multidrug-resistant isolates were obtained from the CDC and FDA Antibiotic Resistance Isolate Bank (Atlanta, GA, USA). P. aeruginosa DA7232 (gyrA-T83I, parC-S80L) was a kind gift from Prof. Dan I. Andersson, Uppsala University, Uppsala, Sweden, and has been characterized elsewhere. P. aeruginosa strains K767 (WT), K1455 (mexAB-oprM overexpressed), K2415 (mexXY-oprM overexpressed), and K3698 (oprM∆) were obtained from Prof. Keith Poole, Queen’s University, Kingston, Ontario, Canada and have been characterized elsewhere. Bacterial cells were grown in cation-adjusted Mueller Hinton (CAMH) media, brain heart infusion broth (BHI), or tryptic soy agar (TSA) plates were all obtained from Becton, Dickinson, and Company (BD; Franklin Lakes, NJ, USA). Aztreonam, ceftazidime, moxifloxacin, levofloxacin, minocycline, tigecycline, chloramphenicol, nitrocefin, and imipenem were purchased from TOKU-E (Bellingham, WA, USA). Azithromycin was purchased from Tokyo Chemical Industry (Portland, OR, USA). Cotrimoxazole was purchased from Toronto Research Chemicals (Toronto, ON, Canada). Doxycycline and polymyxin B were purchased from Sigma-Aldrich (St. Louis, MO, USA). Ethidium bromide (EtBr) and glucose were purchased from VWR (Radnor, PA, USA). MC-04,124 and TXA01182 were synthesized at TAXIS Pharmaceuticals. Carbonyl cyanide 3-chlorophenylhydrazone (CCCP) was purchased from Enzo Life Sciences (Farmingdale, NY, USA). DiOC2 (3) and propidium iodide were obtained from Thermo Fisher Scientific (Waltham, MA, USA).\n(§2) MIC assays were performed as described previously."}, "[2]": {"system": "P. aeruginosa K2415 (mexXY-oprM overexpressed)", "experiment": "MIC / potentiation assay, strain K2415", "type": "cell-based, Pseudomonas aeruginosa", "details": "Pseudomonas aeruginosa, read-out: MICs K2415 (↑mexXY-oprM)", "excerpt": "as §1, §2"}, "[3]": {"experiment": "Metabolic stability in human liver microsomes", "type": "in vitro ADME", "description": "(§3) The metabolic stability of TXA09155 was determined in human, mouse, and rat liver microsomes by Eurofins (St. Charles, MO, USA) using the substrate depletion method (in vitro half-life (t1/2) method). Quantification was performed by LC/MS/MS. In this assay, depletion of the parent compound is measured over time to determine the compound’s in vitro t1/2 and hepatic extraction ratios (ER). This is used to predict metabolic clearance. […] This assay utilizes electrophysiology measurements on the electric current passing through the hERG channel heterologously expressed in a stable CHO cell line. Channels are open by a hERG-specific voltage protocol, and the compound effects are directly characterized by their block of the hERG current. The assay is performed on an automated platform, Q-Patch."}, "P. aeruginosa ATCC 27853": {"system": "P. aeruginosa ATCC 27853", "experiment": "Time-kill studies", "type": "cell-based, Pseudomonas aeruginosa", "details": "highest concentration tested", "description": "Time-kill studies were carried out as described previously with the following changes."}, "[4]": {"experiment": "CellTiterGlo cytotoxicity assay", "type": "cell-based", "details": "human, 293T cells"}, "[5]": {"experiment": "CellTiterGlo cytotoxicity assay", "type": "cell-based", "details": "human, A549 cells"}, "hERG channel": {"biological_target": "hERG channel (Homo sapiens, UniProt Q12809)", "sequence (Q12809 whole entry)": "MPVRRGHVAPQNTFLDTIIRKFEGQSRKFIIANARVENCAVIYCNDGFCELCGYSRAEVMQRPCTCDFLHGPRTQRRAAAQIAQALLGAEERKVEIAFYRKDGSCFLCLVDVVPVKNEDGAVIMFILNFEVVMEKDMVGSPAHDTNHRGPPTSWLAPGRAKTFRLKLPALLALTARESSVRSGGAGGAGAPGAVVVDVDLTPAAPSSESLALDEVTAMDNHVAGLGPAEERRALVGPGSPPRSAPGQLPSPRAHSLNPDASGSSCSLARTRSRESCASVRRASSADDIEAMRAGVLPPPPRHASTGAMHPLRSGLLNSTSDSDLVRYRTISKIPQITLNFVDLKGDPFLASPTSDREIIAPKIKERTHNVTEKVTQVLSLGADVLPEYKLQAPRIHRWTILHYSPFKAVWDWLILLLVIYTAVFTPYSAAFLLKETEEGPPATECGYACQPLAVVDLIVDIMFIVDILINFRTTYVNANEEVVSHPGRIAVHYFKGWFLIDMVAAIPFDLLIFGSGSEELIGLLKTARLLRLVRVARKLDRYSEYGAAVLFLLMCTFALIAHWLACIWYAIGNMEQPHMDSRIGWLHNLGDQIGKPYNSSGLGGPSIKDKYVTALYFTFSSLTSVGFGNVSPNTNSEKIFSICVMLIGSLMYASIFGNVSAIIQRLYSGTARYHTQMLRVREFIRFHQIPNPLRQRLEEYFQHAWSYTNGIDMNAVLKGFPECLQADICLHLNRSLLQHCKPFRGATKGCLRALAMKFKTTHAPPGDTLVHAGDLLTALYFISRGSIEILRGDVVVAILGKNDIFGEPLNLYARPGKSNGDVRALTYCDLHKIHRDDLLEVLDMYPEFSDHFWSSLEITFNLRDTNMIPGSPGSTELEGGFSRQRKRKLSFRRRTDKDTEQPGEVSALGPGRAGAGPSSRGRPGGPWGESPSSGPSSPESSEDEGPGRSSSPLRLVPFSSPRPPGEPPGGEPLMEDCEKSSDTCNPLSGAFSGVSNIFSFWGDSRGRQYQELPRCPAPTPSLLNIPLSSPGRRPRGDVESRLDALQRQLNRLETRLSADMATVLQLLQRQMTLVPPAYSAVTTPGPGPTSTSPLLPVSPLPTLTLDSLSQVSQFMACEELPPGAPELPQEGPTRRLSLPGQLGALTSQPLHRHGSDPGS", "experiment": "hERG patch clamp assay (Q-Patch, CHO cell line)", "type": "cell-based", "description": "as §3"}}, "data": [{"smiles": "C[C@H]1COc2c(N3CCN(C)CC3)c(F)cc3c(=O)c(C(=O)O)cn1c23", "note": "[Levofloxacin]", "values": [{"measurement": "MIC", "setting": "[1]", "value": 4, "unit": "mg/L"}, {"measurement": "MIC", "setting": "[2]", "value": 4, "unit": "mg/L"}]}, {"smiles": "Cl.NC[C@@H]1CN[C@H](CNC(=O)c2cc3ccc(-c4ccc(F)cc4)cc3[nH]2)C1", "note": "[TXA09155, N-(((2S,4R)-4-(aminomethyl)pyrrolidine-2-yl)methyl)-6-(4-fluorophenyl)-1H-indole-2-carboxamide hydrochloride salt]", "values": [{"measurement": "HLM and RLM Metabolic Stability (HLM)", "setting": "[3]", "value": ">60", "unit": "%"}, {"measurement": "effect on growth, compound alone", "setting": "P. aeruginosa ATCC 27853", "value": "did not affect the growth"}, {"measurement": "IC50", "setting": "[4]", "value": "> 40", "unit": "µM"}, {"measurement": "IC50", "setting": "[5]", "value": "> 40", "unit": "µM"}, {"measurement": "IC50", "setting": "hERG channel", "value": 16, "unit": "µM"}]}]}
